Measured values taken from patent US10308617B2, “Triazole benzamide derivatives and the compositions and methods of treatment regarding the same” (An2H Discovery Limited, priority 2016, dated 2019).

What was measured:
Parkin = Parkin (Homo sapiens, UniProt O60260); test: Parkin pUB Auto-ubiquitinylation Assay (TR-FRET); format: biochemical; settings: for EC50: Parkin activation, pUb activated Parkin, read-out: Auto-ubiq EC50 (μM) [Example 3]
Text: A Parkin pUB Auto-ubiquitinylation Assay is used to evaluate a compound's potency to activate Parkin's ability to Auto-ubiquitinylate itself.
The principle of this assay is that the E3 Ligase Parkin catalyzes the transfer of Ubiquitin to target proteins, but also has the ability to auto-ubiquitinylate itself. The phospho-Ubiquition (pUb) added to the assay alters the Parkin to a state where small molecule activators can enable the Parkin to auto-ubiquitinylate though the E1-E2 cascade reaction. The use of a Eu cryptate Ubiquition and anti 6His-d2 that binds to the His tagged Parkin will give a signal when the Eu cryptate Ubiquition is auto-ubiquitinylate onto the Parkin which can be monitored by TR-FRET.
Similar to the Activity-based probe assay in Example 2, screening for activating compounds can be distinguished from the controls as follows: • 100% activation signal=pUb activated Parkin+40 nM control activator in DMSO. • 0% activation signal=pUb activated Parkin+DMSO only. • Parkin activators can be identified by an increase of the 0% activation signal TR-FRET signal. Materials: • Assay Plate: White 384 well plate (Corning 3572) • Enzyme 1: E1 (Ubiquitin-activating enzyme/UBE1 Boston Biochem E-305) • Enzyme 2: E2 (UBcH7/Ube2L3 Boston Biochem E2-640) • Enzyme 3: Parkin-His tagged 203 μM (10.5 mg/ml) • pUb: Phospho-Ubiquitin (S65) (Boston Biochem U-102) • Eu Cryptate Reagent: Ubiquitin Eu (CisBio 61UBIKLA) • DMSO: DMSO (Sigma-34869-2.5L) • Reaction Buffer: 50 mM HEPES, 50 mM NaCl, 1 mM MgCl2, 0.005% Tween 20, 0.1% PF-127 (Fisher Scientific 50-310-494), pH 8.5 • Detection Buffer: 50 mM HEPES, 50 mM NaCl, 800 mM KF, 5 mM EDTA, 0.005% Tween 20, 0.1% PF-127, pH 8.5 • Detection Reagent Z: 13.4 nM Anti-6His-d2 in detection buffer • d2 Reagent: Anti-6His-d2 (CisBio 61HISDLA)
Enzyme Reaction (15 min pre-incubation with Parkin, pUb and activator only) • Parkin: 196 nM • pUb: 196 nM • DMSO: 1% DMSO • E1: 5 nM • E2: 50 nM • Ubiquitin Eu: 8.8 nM • Reaction time: 120 minutes • Temperature: 22° C. • Total volume: 10 μl reaction
Take 10 μl of Enzyme Reaction above and add 10 μl detection Reagent Z under the following conditions:
Assay Procedure: • 1) Load assay plate wells with 4.9 μl 400.0 nM Parkin, 400 nM pUb in reaction buffer by use of Eppendorf 12-channel pipette. • 2) Deliver 0.1 μl 100× activator candidates in DMSO by use of Echo 555 compound dispenser. Highest 100× concentration=100 μm and then twofold dilutions. Add each compound and control in duplicate wells. • 3) Spin 1000 rpm, 2 minutes, at room temp. • 4) Incubate plate for 15 minutes at room temp. • 5) Add 5 μl 10 nM E1, 100 nM E2, 17.6 nM Ubiquitin Eu and 2 mM ATP in Reaction Buffer by use of Eppendorf 12-channel pipette. • 6) Spin 1000 rpm, 2 minutes, at room temp. • 7) Incubate plate for 120 minutes at room temp. • 8) Add 10 μl 13.4 nM anti his d2 in detection buffer by use of Eppendorf 12-channel pipette. • 9) Spin 1000 rpm, 2 minutes, at room temp. • 10) Incubate plate for 120 minutes at room temp. • 11) Read plates on Perkin Elmer Envision instrument with the following parameters: • LANCE dual laser protocol loaded into the Envision® software • Top Mirror: LANCE/DELFIA Duel/Bias (Bar code 446) • Emission Filter: APC 665 EM (Bar code 205) • 2nd Emission Filter: Europium 615 EM (Bar code 203) • Read 655 nm (channel 1) and 615 nm (channel 2) wavelengths on Envision®
Data Analysis: The Data can be read in CSV files. There are two tables in those CSV files, which are the values of 655 nm (channel 1) and 615 nm (channel 2) wavelengths respectively. The data is converted to an HTRF Ratio=(Channel 1/Channel 2)*10,000
The average of all the 0 uM controls (DMSO only)=BKGD (Background—0% activation). Subtract BKGD from each HTRF Ratio value=HTRF-BKGD. The average of all the […] control activator in DMSO controls=Max (100% activation). The following equation is then used to calculate % Activation for each well/candidate as follows: % Activation=(HTRF-BKGD/Max)*100. […]

[1] = Microsomal Stability Assay, rat liver microsomes; format: in vitro ADME; settings: for half-life at 1 μM: rat, liver microsomes, pH 7.4, 1 μM compound, 1.0 mg/mL microsome, NADPH, read-out: RLM t1/2
Protocol: Compounds were also tested for metabolic stability in both rat liver microsomes (RLM) and human liver microsomes (HLM) and their half-life calculated (See Table 5). The assay was performed as follows. The total volume for each incubation was 250 μL. A 100 μM DMSO solution of compound (diluted from 10 mM stock solution) was spiked into 50 mM KH2PO4 (pH 7.4) buffer containing liver microsome at a concentration of 1.0 mg/mL. The reaction was initiated by the addition of 50 μL of 1 mM NADPH. The final concentration of each compound was 1 μM (1% DMSO). The positive controls, phenacetin for CYP1A2, diclofenac for CYP2C9, omeprazole for CYP2C19, dextromethorphan for CYP2D6 and midazolam for CYP3A4 were added to a separate tube with the final substrate concentrations of 1 μM (1% DMSO) for evaluating the enzyme activities in the liver microsomes. At 0, 15, 30 and 60 min, an aliquot of 15 μL reaction mixtures were removed and 200 μL of methanol (with internal standard of 25 ng/mL propranolol) was added to quench the reaction. The resulting mixture was centrifuged and supernatant was used for LC-MS/MS analysis.
The signals for each compound, or the metabolites for the probe substrates and the internal standard were integrated and the peak area ratios to internal standard were generated. Percent parent remaining at a specified timepoint was calculated based on the peak area ratios at time 0 (as 100%) for in vitro metabolic stability studies in liver microsome and hepatocyte. The observed rate constant (kobs) for the metabolism of substrates was calculated by plotting the natural log of percentage substrate remaining versus time of incubation with the slope being kobs. The half-life (T1/2) was calculated according to the following equation: T1/2=0.693/kobs

Chain of Parkin (O60260 whole entry, other chains not shown): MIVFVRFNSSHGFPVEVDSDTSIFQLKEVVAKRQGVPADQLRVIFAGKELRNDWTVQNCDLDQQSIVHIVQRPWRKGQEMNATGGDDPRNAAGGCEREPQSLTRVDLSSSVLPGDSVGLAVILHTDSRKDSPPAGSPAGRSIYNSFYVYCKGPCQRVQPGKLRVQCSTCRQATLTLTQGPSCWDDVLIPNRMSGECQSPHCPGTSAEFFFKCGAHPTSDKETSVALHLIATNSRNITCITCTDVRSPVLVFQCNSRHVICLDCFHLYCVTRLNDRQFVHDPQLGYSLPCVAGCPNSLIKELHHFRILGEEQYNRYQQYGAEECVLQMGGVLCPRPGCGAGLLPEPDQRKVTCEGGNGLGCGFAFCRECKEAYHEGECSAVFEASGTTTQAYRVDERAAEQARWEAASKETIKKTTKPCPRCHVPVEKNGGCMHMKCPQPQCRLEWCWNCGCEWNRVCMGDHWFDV

SMILES	Parkin activity in an auto-ubiquitination assay (Parkin)	EC50 (Parkin) [µM]	half-life at 1 μM [1] [min]	In vitro RLM ([1]; as repeated in the PK tables) [min]	In vitro RLM (min) ([1]; as repeated in the PK tables)
O=C(Nc1nc(NC(=O)c2ccccc2)n(-c2ccccc2)n1)c1ccccc1 [Compound A, N,N′-(1-phenyl-1H-1,2,4-triazole-3,5-diyl)dibenzamide]	increases	2.3	20.6	–	–
O=C(Nc1nc(NC(=O)c2ccc3ccccc3n2)n(-c2ccccc2)n1)c1ccccc1 [Compound B2]	–	> 40	2	–	–
Cc1ccccc1C(=O)Nc1nc(NC(=O)/C=C/c2ccccc2)n(-c2ccccc2)n1 [Compound C2]	–	> 40	12	–	–
O=C(/C=C/c1ccccc1)Nc1nc(NC(=O)c2ccccc2)nn1-c1ccccc1 [Compound C, N-(5-cinnamamido-1-phenyl-1H-1,2,4-triazol-3-yl)benzamide]	increases	> 40	14.1	14.1	–
O=C(Nc1nc(NC(=O)c2ccccc2)n(-c2ccc3c(c2)OCCO3)n1)c1ccccc1 [Compound E2]	–	> 40	3	–	–
Cc1ccccc1C(=O)Nc1nc(NC(=O)c2ccccc2C)n(-c2ccccc2)n1 [Compound F, 2-methyl-N-[5-[(2-methylbenzoyl)amino]-1-phenyl-1,2,4-triazol-3-yl]benzamide]	–	> 40	630	–	Stable
O=C(Nc1nc(NC(=O)c2cccs2)nn1-c1ccccc1)c1ccccc1 [Compound G2]	–	> 40	39	–	–
O=C(Nc1nc(NC(=O)c2ccccc2)n(-c2ccc3ncccc3c2)n1)c1ccccc1 [Compound J2]	–	> 40	50	–	–
Cc1ccccc1C(=O)Nc1nc(NC(=O)c2cccs2)nn1-c1ccccc1 [Compound K2]	–	> 40	29	–	–

Other lines, results leading:

Parkin activity in an auto-ubiquitination assay (Parkin)	EC50 (Parkin) [µM]	half-life at 1 μM [1] [min]	In vitro RLM ([1]; as repeated in the PK tables) [min]	In vitro RLM (min) ([1]; as repeated in the PK tables)	SMILES
–	> 40	59.2	–	–	O=C(Nc1nc(Nc2ncnc3ccccc23)n(-c2ccccc2)n1)c1ccccc1 [Compound L, N-[1-phenyl-5-(quinazolin-4-ylamino)-1,2,4-triazol-3-yl]benzamide]
–	> 40	76	–	–	Cc1ccccc1C(=O)Nc1nc(-c2ccccn2)nn1-c1ccccc1 [Compound Q2]
–	> 40	77	–	–	Cc1ccccc1C(=O)Nc1nc(Nc2ncnc3ccccc23)n(-c2ccccc2)n1 [Compound R2]
–	> 40	10.5	–	–	O=C(/C=C/c1ccccc1)Nc1nc(NC(=O)c2ccccc2)nn1-c1ccccn1 [Compound U1]
–	> 40	126	–	–	c1ccc(-n2nc(-c3ccccn3)nc2Nc2ncnc3ccccc23)cc1 [Compound U2]
–	> 40	110	–	–	O=C(Nc1nc(NC(=O)c2ccco2)n(-c2ccccc2)n1)c1ccccc1 [Compound W1]
–	> 40	< 1	–	–	O=C(Nc1nc(-c2ccccn2)nn1-c1ccccc1)c1ccccc1 [Compound Y1, N-(1-phenyl-3-(pyridin-2-yl)-1H-1,2,4-triazol-5-yl)benzamide]
–	> 40	19	–	–	O=C(Nc1nc(NC(=O)c2ccccc2)n(-c2ccc(OC(F)(F)F)cc2)n1)c1ccccc1 [Compound Z1]
–	> 40	45	–	–	O=C(Nc1nc(Nc2ncnc3ccccc23)n(-c2ccccc2)n1)c1ccco1 [Z]
